In patent US11596642B2, “Therapeutic treatment of breast cancer based on c-MAF status” (INBIOMOTION S.L., priority 2016, dated 2023):

Assays:
Format in all cases: in vivo, human
breast cancer [1] = test: AZURE trial, MAF FISH stratification: invasive disease free survival (IDFS) / time to recurrence; conditions: MAF positive patients (>=2.2) in the zoledronic acid treatment arm; p<0.001, multivariate analysis
Excerpt: (§1) The MAF FISH assay was produced by Kreatech for Inbiomotion based on KREATECH proprietary FISH technology. The probe set contains two probes: a MAF 16q23 probe plus a D16Z3 probe as control of chromosome 16 centromeric region. The assay was validated using a 16q23/D16Z3 probe (Inbiomotion) and Poseidon Tissue Digestion Kit from Kreatech. The scoring criteria were defined in a fact sheet and as follows: two FISH evaluable results per patient, and the highest value was selected. The scoring algorithm was as follows: 20 cells counted for target and centromere amplification, if the gene count is >2 and ≤3, then 50 cells were counted. […]
(§2) numerical and categorical (+/− cut-off>=2.5) variable; % of nucleic MAF amplified (MAF CN>2):numberical+categorical (cut-off TBD). […] The following clinical variables were analyzed: disease-free survival (DFS), invasive disease-free survival (IDFS), overall survival (OS), first recurrence in bone, bone recurrence at any time, time to first DFS event in bone, time to first DFS event not in bone, response to zoledronic acid treatment.
(§3) In analyzing the MAF FISH prognostic value, the patients from the control and treatment arms were pooled for the initial analysis. Optimized cut-offs for each variable to be analyzed were used when indicated. […]

breast cancer [2] = test: AZURE trial, retrospective MAF FISH stratification: time to bone metastasis (zoledronic acid arm vs control arm)
Excerpt: The MAF FISH assay was produced by Kreatech for Inbiomotion based on KREATECH proprietary FISH technology. The probe set contains two probes: a MAF 16q23 probe plus a D16Z3 probe as control of chromosome 16 centromeric region. The assay was validated using a 16q23/D16Z3 probe (Inbiomotion) and Poseidon Tissue Digestion Kit from Kreatech. The scoring criteria were defined in a fact sheet and as follows: two FISH evaluable results per patient, and the highest value was selected. The scoring algorithm was as follows: 20 cells counted for target and centromere amplification, if the gene count is >2 and ≤3, then 50 cells were counted.
An overview of the AZURE clinical trial (Coleman et al N Eng J Med 2011; 365: 1396-1405 and AZURE Current Controlled Trials number, ISRCTN79831382 and ClinicalTrials.gov identifier NCT00072020) study design, whose patients were used to validate MAF, is provided in FIG. 2. MAF was validated in a retrospective analysis of the AZURE trial using patient tumor sample prospectively collected under regulatory compliant conditions. Out of the 3360 patients recruited, 1,769 donated tumor tissue (52.4%). There were 13 TMAs (tissue micro array) (150 patient samples each) (1,769 patients). There were 4 replicas of each TMA using different tissue cores (6,326 (4×patient)). One TMA had only 1 replica and two TMAs had three replicas. Based on the H&E analysis (hematoxilyin and eosin) (FIG. 3) (6,326): 3978 cores were evaluable (63%) and 2348 were nonevaluable.
For the FISH assay, there were 2,067 FISH evaluable cores (56%). […] 567 patients were nonevaluable by FISH in any of the 4 replicas (32%).
numerical and categorical (+/− cut-off>=2.5) variable; % of nucleic MAF amplified (MAF CN>2):numberical+categorical (cut-off TBD). For the IHC analysis: IHC H-Score: numerical+categorical (cut-off=200), IHC OD: numerical+categorical (cut-off tBD). The following clinical variables were analyzed: disease-free survival (DFS), invasive disease-free survival (IDFS), overall survival (OS), first recurrence in bone, bone recurrence at any time, time to first DFS event in bone, time to first DFS event not in bone, response to zoledronic acid treatment.
In analyzing the MAF FISH prognostic value, the patients from the control and treatment arms were pooled for the initial analysis. Optimized cut-offs for each variable to be analyzed were used when indicated. Death as a competing event was used in time to bone metastasis, anytime. The following clinical variables were analyzed: time to bone metastasis (anytime), time to bone metastasis (as first event), IDFS (including ipsilateral invasive breast tumor recurrence, regional invasive breast cancer recurrence, metastatic disease-breast cancer, death attributable to any cause, including breast cancer, contralateral invasive breast cancer, second primary non-breast invasive cancer), and overall survival.
The control and zoledronic acid treatment arms from the AZURE study described in Example 1 were evaluated to determine the effect of zoledronic acid treatment on MAF-stratified patients.

breast cancer [3] = test: AZURE trial, MAF FISH stratification: disease free survival (DFS); conditions: MAF negative post menopausal patients; zoledronic acid treatment; 95% CI 0.33-0.95
Excerpt: as §1, §2, §3

breast cancer [4] = test: AZURE trial, MAF FISH stratification: overall survival (OS); conditions: MAF negative post menopausal patients; zoledronic acid treatment; 95% CI 0.31-1.01
Excerpt: as §1, §2, §3

## O=P(O)(O)C(O)(Cn1ccnc1)P(=O)(O)O [zoledronic acid]
Breast cancer [1]
  Hazard ratio (HR), time to recurrence (invasive disease): 0.52
Breast cancer [2]; MAF FISH not positive patients, pre-specified cut off 2.5, zoledronic acid treatment vs control, death as competing event, p=0.03
  Hazard ratio (HR), risk of bone metastasis at any time: 0.65
Breast cancer [2]; MAF non-positive non-post-menopausal patients, cut off 2.5, p=0.08
  Hazard ratio (HR), time to a bone metastatic event (anytime): 0.66
Breast cancer [2]; MAF non-positive postmenopausal patients, cut off 2.5, limited number of events
  Hazard ratio (HR), time to a bone metastatic event (anytime): 0.63
Breast cancer [2]; MAF positive non-post-menopausal patients, cut off 2.5, p=0.045
  Hazard ratio (HR), time to a bone metastatic event (anytime): 2.44
Breast cancer [2]; MAF positive patients, cut off 2.5, zoledronic acid treatment vs control, non-significant, p=0.22
  Hazard ratio (HR), risk of bone metastasis at any time: 1.54
Breast cancer [2]; MAF positive postmenopausal patients (>2.5), treatment outcome, p=0.26, limited number of events
  Hazard ratio (HR), time to a bone metastatic event (anytime): 0.46
Breast cancer [2]; zoledronic acid arm, MAF FISH not positive (<2.3) compared to MAF FISH positive patients, p=0.01
  Hazard ratio (HR), risk of bone metastasis at any time: 0.52
Breast cancer [3]
  Hazard ratio (HR), DFS outcome: 0.56
Breast cancer [4]
  Hazard ratio (HR), overall survival outcome: 0.56
